Measured values from patent US20190262294A1, “MODIFIER SYSTEM FOR COMPOSITIONS CONTAINING LAYERED DOUBLE HYDROXIDE” (OXFORD PHARMASCIENCE LIMITED, priority 2016, published 2019).

Assay: solvent system method: total amount of ibuprofen released from the LDH
Type: physicochemical
Conditions: 200 mg dose of ibuprofen; 0.05M HCl 50 mL, 15 min
Experimental: This method determines the total amount of ibuprofen that is released from the LDH matrix.
A sample is then removed for analysis to determine the total amount of ibuprofen (dissolved and undissolved) which is released into the HCl solution. Further dilution is conducted as required.
Samples of the of the reaction solution were removed and used to determine the amount of ibuprofen released by each of the modifier systems using both the solvent system method and the solubility method described above.

Which “TOTAL AMOUNT OF IBUPROFEN RELEASED FROM THE LDH AS DETERMINED USING THE SOLVENT METHOD” value does the source give for `CC(C)Cc1ccc(C(C)C(=O)O)cc1` (stereo not shown) [Ibuprofen free acid] here?
The value was 95%.
